Reference: PubChem BioAssay (NCI)
“And” between values parts separate entries of the source, which are not always exact repeats. Equal entries are not always repeated.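 Dose response: 5 concentrations. Exposure: 48 h. Format: 96-well plates. Endpoint: linear interpolation; highest concentration if not reached. At the GI50, growth is halved. TGI marks complete inhibition of growth.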

What was measured:
Assay in all cases: DTP human tumour cell line panel, 48 h
SK-OV-3 ovarian = system: SK-OV-3 ovarian
UACC-62 melanoma = system: UACC-62 melanoma
PC-3 prostate = system: PC-3 prostate
SK-MEL-28 melanoma = system: SK-MEL-28 melanoma
NCI-H23 lung = system: NCI-H23 lung
IGROV1 ovarian = system: IGROV1 ovarian
CAKI-1 renal = system: CAKI-1 renal
HCT-116 colon = system: HCT-116 colon
TK-10 renal = system: TK-10 renal
SNB-19 CNS = system: SNB-19 CNS
OVCAR-8 ovarian = system: OVCAR-8 ovarian
KM12 colon = system: KM12 colon
T-47D breast = system: T-47D breast

| Structure (SMILES) | TGI (SK-OV-3 ovarian) | TGI (UACC-62 melanoma) | TGI (PC-3 prostate) | TGI (SK-MEL-28 melanoma) | TGI (NCI-H23 lung) | TGI (IGROV1 ovarian) | TGI (CAKI-1 renal) | TGI (HCT-116 colon) | TGI (TK-10 renal) | TGI (SNB-19 CNS) | TGI (OVCAR-8 ovarian) | TGI (KM12 colon) | TGI (T-47D breast) | GI50 (SK-OV-3 ovarian) | GI50 (UACC-62 melanoma) | GI50 (SK-MEL-28 melanoma) | GI50 (CAKI-1 renal) | GI50 (T-47D breast) |
| --- | --- | --- | --- | --- | --- | --- | --- | --- | --- | --- | --- | --- | --- | --- | --- | --- | --- | --- |
| COc1ccc(Nc2nnc(-c3nsc4ccccc34)s2)cc1 | 19 µM | > 100 µM | > 100 µM | > 100 µM | > 100 µM | > 100 µM | > 100 µM | 45.2 µM | > 88.5 µM | > 100 µM | > 100 µM | > 100 µM | > 100 µM | – | – | – | – | – |
| O=C(Nc1ccc(Cl)cc1)NS(=O)(=O)c1coc2cc(F)ccc2c1=O | > 100 µM | > 100 µM | > 100 µM | > 100 µM | > 100 µM | > 100 µM | > 100 µM | – | > 100 µM | > 100 µM | > 100 µM | > 100 µM | > 100 µM | – | – | – | – | – |
| O=c1oc2ccc3ccccc3c2cc1-c1cn2ccccc2n1 | > 100 µM | > 100 µM | > 100 µM | > 100 µM | > 100 µM | > 100 µM | 75.1 µM | > 100 µM | > 100 µM | – | > 100 µM | > 100 µM | > 100 µM | – | – | – | – | – |
| C(=C\c1cccs1)/c1cccc(/C=C/c2cccs2)n1 | > 100 µM | > 100 µM | > 100 µM | > 100 µM | > 100 µM | > 100 µM | > 100 µM | > 100 µM | > 100 µM | > 100 µM | > 100 µM | > 100 µM | > 100 µM | – | – | – | – | – |
| CNC1=C(C)C(=O)C(=O)C([C@H](C)CCC=C(C)C)=C1O | 83.3 µM | > 72.3 µM | 98.7 µM | > 100 µM | > 100 µM | > 76.1 µM | 56.7 µM | > 100 µM | > 100 µM | > 100 µM | > 60.9 µM | > 100 µM | 86.3 µM | – | – | – | – | – |
| OC1(c2cccs2)c2cccc(Cl)c2C(O)(c2cccs2)c2c(Cl)cccc21 (centres undefined) | > 100 µM | > 100 µM | > 100 µM | > 100 µM | > 100 µM | > 100 µM | > 100 µM | > 100 µM | > 100 µM | > 100 µM | > 100 µM | > 100 µM | > 100 µM | – | – | – | – | – |
| Cn1c2ccccc2c2c(-c3ccccc3)cc3c(c21)C(=O)C=CC3=O | > 10 µM | 2.64 µM | > 6.39 µM | 4.34 µM | 3.81 µM | 5.5 µM | 4.07 µM | 2.91 µM | 3.4 µM | > 10 µM | 5.12 µM | > 8.77 µM | 4.9 µM | – | – | – | – | – |
| C=CCN1C(=O)C=C(c2ccccc2)n2ncc3cccc1c32 | > 100 µM | > 100 µM | > 100 µM | > 100 µM | > 100 µM | > 100 µM | > 100 µM | > 100 µM | > 100 µM | > 100 µM | > 100 µM | > 100 µM | > 100 µM | – | – | – | – | – |
| O=C1CCC2C(O)c3cc4c(cc3C(c3ccc5c(c3)OCO5)N12)OCO4 (centres undefined) | > 100 µM | > 100 µM | > 100 µM | > 100 µM | > 100 µM | > 100 µM | > 100 µM | > 100 µM | > 100 µM | > 100 µM | > 100 µM | > 100 µM | > 100 µM | – | – | – | – | – |
| N#Cc1c(-c2ccccc2)cc(-c2ccccc2)n(C2OC(CO)C(O)C(O)C2O)c1=S (centres undefined) | > 100 µM | 33.9 µM and > 100 µM | > 100 µM | 47.4 µM and > 100 µM | 58.9 µM and 89.7 µM | > 100 µM | > 100 µM | 46.9 µM and > 100 µM | > 100 µM | > 100 µM | > 100 µM | > 100 µM | 34.5 µM and > 100 µM | 40.3 µM and 85 µM | 15.9 µM and 35.5 µM | 18.8 µM and 53.5 µM | 38.1 µM and > 100 µM | 6.51 µM and 29.1 µM |
| COC1=C(OC)C(=O)C(Cc2c(Cl)nc3sc(C)cn23)=C(C)C1=O | 32 µM | 25.6 µM | 34.9 µM | 32.2 µM | 42.6 µM | 35.5 µM | 72.7 µM | 55.9 µM | 31.7 µM | 41.3 µM | 41.2 µM | 27.8 µM | > 100 µM | – | – | – | – | – |
| Cc1cc(=O)[nH]c(-n2[nH]c(C)c(CCO)c2=O)n1 | > 100 µM | > 100 µM | > 100 µM | > 100 µM | > 100 µM | > 100 µM | > 100 µM | > 100 µM | > 100 µM | > 100 µM | > 100 µM | > 100 µM | > 100 µM | – | – | – | – | – |
| C=CCN1C(=O)/C(=C/c2ccc(OC)cc2)N=C1SC/C=C/C | > 100 µM | > 100 µM | > 100 µM | > 100 µM | > 100 µM | > 100 µM | > 100 µM | > 100 µM | > 100 µM | > 100 µM | 80.1 µM | > 100 µM | 94.2 µM | – | – | – | – | – |
| O=c1c2c(oc3ccccc13)-c1ccccc1OC2 | 53.2 µM | > 100 µM | > 100 µM | – | > 100 µM | > 100 µM | > 100 µM | > 100 µM | > 100 µM | – | > 100 µM | > 100 µM | > 100 µM | – | – | – | – | – |
| O=C(NC1=NCC(CN2CCN(c3ccccc3)CC2)O1)Nc1ccccc1 (centres undefined) | > 100 µM | > 100 µM | > 100 µM | > 100 µM | > 100 µM | > 100 µM | > 100 µM | > 100 µM | > 100 µM | > 100 µM | – | > 100 µM | > 100 µM | – | – | – | – | – |
| O=C1c2cc(Cl)ccc2-n2cnnc2C2CSCN12 (centres undefined) | > 100 µM | > 100 µM | > 100 µM | > 100 µM | – | > 100 µM | 46 µM | > 100 µM | > 100 µM | > 100 µM | > 100 µM | > 100 µM | > 100 µM | – | – | – | – | – |
| CC1C2(C)OC(=N)C(C#N)(C(c3ccccc3)O2)C1(C#N)C#N (centres undefined) | > 100 µM | 56.4 µM | 88.7 µM | – | 78.2 µM | > 100 µM | 26.6 µM | 49.8 µM | > 100 µM | > 100 µM | > 100 µM | > 100 µM | 55.3 µM | – | – | – | – | – |
